Assay results reported in patent US20040234592A1, “Dermatological formulations” (priority 2001, published 2004).

How the values were obtained:
[1] = tested on: genes important for skin structure and function; settings: established models of human skin; cited from earlier work
[2] = tested on: atrophy induced by topical betamethasone; assay: Betamethasone-induced skin atrophy in mice, concomitant TriAc; type: in vivo; settings: concomitant treatment with topical betamethasone

SMILES: O=C(O)Cc1cc(I)c(Oc2ccc(O)c(I)c2)c(I)c1 [TriAc, [4-(4-Hydroxy-3-iodophenoxy)-3,5-diiodophenyl]acetic acid]
- expression of genes important for skin structure and function [1]: regulate expression of several genes
- atrophy (reduction of total collagen and of cross-linking between collagen bundles in the dermis) [2]: totally prevents the atrophy
